Where two headings read alike, the source gives them in different places.
Columns and labels:
KOR = KOR (Homo sapiens (Human), UniProt P41145); assay: Competition binding assay at KOR ([3H]DPN, CHO cell membranes)
Experimental: (§1) Chinese hamster ovary (CHO) cells expressing MOR, KOR and DOR were cultured for use in this assay. The culture media used for MOR CHO cells contained 500 mL DMEM/F12 media, 10% FBS, 1% penicillin/streptomycin, and 2.75 mL G418. The DOR and KOR CHO cells were cultured in the same media except that 5% FBS was used instead of 10%. The cells are allowed to grow until they are 80-95% confluent after which they are split. The cells are continuously cultured and split until there were sufficient cells for the studies.
(§2) Once the cells reached confluence, cells were harvested, centrifuged at 1000×g for 10 minutes, and suspended in membrane buffer (50 mM Tris, 3 mM MgCl2, and 1 mM EGTA, pH 7.4). The cells were then homogenized, centrifuged at 50000×g for 10 minutes, and re-homogenized in membrane buffer. A Bradford assay was conducted to determine membrane protein concentrations, and membrane protein preps (3 μg/aliquot) were stored at −80° C.
(§3) The competition binding assay was conducted to determine the affinity and selectivity of the synthesized compounds to MOR over KOR and DOR. The Kd and Bmax values for [^3H]NLX at MOR and [^3H]DPN at KOR had been determined previously. […] [^3H]NLX was used to label MOR whilst [^3H]DPN was used to label both DOR and KOR. The potency of the new compounds in displacing the specific binding of the radioligand was determined by linear regression analysis of Hill plots. […] The IC50 values were determined and converted to Ki values using the Cheng—Prusoff equation (Rosenblum, A. et al. Exp Clin Psychopharmacol. 2008, 16 (5), 405-416).

Swiss Webster mice [1] = assay: Warm-water tail immersion assay, blockage of the antinociceptive effect of morphine; details: for Blockage of morphine-mediated antinociception: 10 mg/kg s.c. 5 min before morphine 10 mg/kg, tested 20 min after morphine
Experimental: (§4) FIG. 1A-D. Warm-water tail immersion assay in mice (n=5) at 56±0.1° C. All tested compounds were administered subcutaneously (s.c.). […] Compounds (10 mg/kg) were injected at Time 0. Twenty minutes after injection, tail flick was assessed with hot water. […] Tested compounds (10 mg/kg) were injected at Time 0. Five minutes later, morphine (10 mg/kg) was administered. Twenty minutes after morphine injection, tail flick was tested using hot water.
(§5) For the in vivo studies, male Swiss Webster mice were used for both the warm-water immersion and opioid withdrawal assays. The mice weighed 23-35 g and were housed five to a cage in animal care quarters maintained at 22° C. on a 12 hour light-dark cycle with food and water available ad libitum. The mice were transferred to the test room and the tests were then conducted 18 hours later. Protocols and procedures were approved by the Institutional Animal Care and Use Committee at Virginia Commonwealth University Medical Center and complied with the recommendations of the International Association for the Study of Pain.
(§6) Each indole analogue of naltrexamine was tested for its ability to produce antinociception and/or to antagonize the antinociceptive effects of morphine in mice using the warm-water tail immersion assay described by Coderre and Rollman. The a water bath temperature was maintained at 56±0.1° C. The baseline latency (control) was determined before injecting the compounds into the mice. […] To test for agonism, the tail immersion was conducted 20 min (time that morphine effect starts to peak) after injecting the indole analogues of 6α/β-naltrexamine. To prevent tissue damage, a 10 s maximum cut off time was imposed. Antinociceptive response was calculated as the percentage maximum possible effect (% MPE), where % MPE=[(test−control)/(10−control)]×100. In the antagonism study, the 6α/β-naltrexamine derivatives were given 5 min before morphine. The tail immersion test was conducted 20 min after giving morphine. % MPE was calculated for each mouse using at least five mice per drug. AD50 values were calculated using the least-squares linear regression analysis followed by calculation of 95% confidence interval by Bliss method. A higher % MPE indicates a stronger antinociception effect by the ligand.

MOR [2] = target: MOR (Mus musculus, UniProt P42866); format: biochemical; details: relative to 3 μM DAMGO at MOR
MOR (Mus musculus, UniProt P42866), sequence (P42866 whole entry, looked up): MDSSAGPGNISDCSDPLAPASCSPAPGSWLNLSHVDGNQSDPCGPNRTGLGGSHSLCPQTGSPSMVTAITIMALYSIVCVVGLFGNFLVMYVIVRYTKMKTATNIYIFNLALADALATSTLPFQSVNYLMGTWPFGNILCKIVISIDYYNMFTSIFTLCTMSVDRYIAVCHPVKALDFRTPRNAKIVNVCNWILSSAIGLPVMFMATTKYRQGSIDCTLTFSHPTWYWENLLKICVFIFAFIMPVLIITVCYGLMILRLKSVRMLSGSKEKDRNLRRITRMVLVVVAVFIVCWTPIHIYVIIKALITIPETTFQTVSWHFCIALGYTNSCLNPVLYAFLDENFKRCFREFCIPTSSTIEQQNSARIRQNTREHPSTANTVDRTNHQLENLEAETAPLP
Experimental: The [^35S]GTPγS functional assay was used to determine whether the synthesized compounds are agonists. The agonist's activity of the compounds was measured relative to 3 μM DAMGO at MOR. In this assay, upon receptor activation due to agonist binding, [^35S]GTPγS binds to the Gα subunit. Thus, [^35S]GTPγS replaces endogenous GTP and since the γ-thiophosphate bond is resistant to hydrolysis by GTPase, [^35S]GTPγS labelled Gα subunits accumulate and can be quantified by measuring the amount of incorporated [^35S].
The Bradford assay was then conducted to determine the concentration of the membrane protein using BSA as the standard. Suitable dilutions of membrane protein, [^35S]GTPγS), cold GTPγS, DAMGO and GDP were made in TME. The desired amount of the protein per tube was 10 μg. All the test-tubes were vortexed and incubated in the shaking water bath at 30° C. for 90 minutes, after which bound radioligand was filtered and rinsed three times with cold Tris buffer. The filtered bound radioligand was then transferred into scintillation tubes with 4 mL of scintillation fluid and radioligand was quantified. However, counting was delayed for 9 hrs to allow the radioactivity to enter the solution. Percent DAMGO stimulation was defined as (net stimulated binding of test compound/net stimulated binding of DAMGO)×100%. The normalized data were subjected to nonlinear regression analysis to determine EC50 and Emax values using Prism 6.0 software (GraphPad Software, San Diego, Calif.). The assay was performed in triplicate and repeated at least three times.

DOR [3] = target: T1, DOR (Homo sapiens (Human), UniProt P41143); assay: Competition binding assay at DOR ([3H]DPN, CHO cell membranes)
T1 sequence (P41143 whole entry, looked up): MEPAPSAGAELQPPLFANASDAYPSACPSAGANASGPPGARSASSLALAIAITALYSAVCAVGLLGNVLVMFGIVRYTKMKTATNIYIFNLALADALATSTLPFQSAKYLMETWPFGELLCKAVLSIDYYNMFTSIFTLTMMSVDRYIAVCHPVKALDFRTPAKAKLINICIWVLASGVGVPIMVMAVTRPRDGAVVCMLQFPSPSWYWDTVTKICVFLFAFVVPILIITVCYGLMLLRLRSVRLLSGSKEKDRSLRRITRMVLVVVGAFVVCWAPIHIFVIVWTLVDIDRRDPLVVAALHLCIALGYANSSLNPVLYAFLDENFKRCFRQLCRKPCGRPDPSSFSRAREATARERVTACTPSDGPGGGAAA
Experimental: as §1, §2, §3

morphine-pelleted mice = assay: Opioid withdrawal assay in chronic morphine-exposed (pelleted) mice
Experimental: as §5
A 75 mg morphine pellet was implanted in to the base of the neck of the mice and the mice were then given time to recover in their home cages before the test was conducted. The mice were then allowed for 30 min habituation to an open-topped, square, clear Plexiglas observation chamber (26×26×26 cm^3) with lines partitioning the bottom into quadrants before they were given antagonist. All drugs and test compounds were administered subcutaneously (s.c.). […] Withdrawal commenced within 3 min after antagonist administration. Escape jumps, paw tremors and wet dog shakes were quantified by counting their occurrences over 20 min for each mouse using five mice per drug. The data is given as the mean±SEM. One-way ANOVA followed by the post hoc Dunnett test were performed to assess significance using the Prism 6.0 software.

Swiss Webster mice [4] = assay: Warm-water tail immersion assay, antinociceptive (agonist) effect; format: in vivo; details: 10 mg/kg s.c., tail flick 20 min after injection, 56 °C
Experimental: as §4, §5
as §6, with “In the antagonism study, the 6α/β-naltrexamine derivatives were given 5 min before morphine.” left out, “A higher % MPE indicates a stronger antinociception effect by the ligand.” left out

MOR [5] = target: MOR (Homo sapiens (Human), UniProt P35372); details: background statement; cited from earlier work
MOR (Homo sapiens (Human), UniProt P35372), sequence (P35372 whole entry): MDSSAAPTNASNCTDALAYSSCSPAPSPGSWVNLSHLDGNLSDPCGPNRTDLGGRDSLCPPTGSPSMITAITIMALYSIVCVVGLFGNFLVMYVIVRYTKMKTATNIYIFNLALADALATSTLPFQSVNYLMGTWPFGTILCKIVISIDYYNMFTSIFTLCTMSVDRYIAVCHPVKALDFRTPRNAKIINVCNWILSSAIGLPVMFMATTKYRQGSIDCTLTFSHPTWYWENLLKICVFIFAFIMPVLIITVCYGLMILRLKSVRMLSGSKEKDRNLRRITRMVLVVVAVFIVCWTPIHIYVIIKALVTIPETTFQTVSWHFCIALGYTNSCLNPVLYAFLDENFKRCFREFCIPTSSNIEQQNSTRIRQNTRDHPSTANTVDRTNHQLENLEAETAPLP

DOR [6] = target: T1, DOR; details: read-out: Ki (nM) ± SEM δ; values obtained from previous experiments; cited from earlier work
[7] = [3H]DPN, KOR CHO membranes, read-out: Ki (nM) ± SEM κ
[8] = [3H]DPN, DOR CHO membranes, read-out: Ki (nM) ± SEM δ
[9] = 50 mg/kg s.c., morphine-pelleted mice

Cl.O=C(N[C@H]1CC[C@@]2(O)[C@H]3Cc4ccc(O)c5c4[C@@]2(CCN3CC2CC2)[C@H]1O5)c1cccc2cc[nH]c12 [Compound 6, 17-Cyclopropylmethyl-3,14β-dihydroxy-4,5α-epoxy-6α-(indole-7-carboxamido)morphinan]
Ki (KOR; [7]): 1.69 ± 0.35 nM
Blockage of morphine-mediated antinociception (Swiss Webster mice [1]): effectively blocked morphine-mediated antinociception
AD50 (95% CL), opioid antagonist effect (Swiss Webster mice [1]; dose-dependent study against morphine, s.c.): 2.39 (0.46-12.47) mg/kg
Emax(% DAMGO) ± SEM (MOR [2]): 20.95 ± 4.43 % DAMGO
Ki (DOR [3]; [8]): 10.9 ± 2.94 nM
Escape jumps compared with naltrexone 1 mg/kg (morphine-pelleted mice; 1 mg/kg s.c., morphine-pelleted mice): significantly less escape jumps than naltrexone
Diarrhea (morphine-pelleted mice; 1 mg/kg, morphine pelleted mice (not in placebo pelleted mice)): produced diarrhea
Paw tremors compared with naltrexone 1 mg/kg (morphine-pelleted mice; [9]): significantly less paw tremors than naltrexone
Wet-dog shakes compared with naltrexone 1 mg/kg (morphine-pelleted mice; [9]): significantly less wet-dog shakes than naltrexone
Escape jumps compared with naltrexone 1 mg/kg (morphine-pelleted mice; 50 mg/kg s.c., morphine-pelleted mice, not significantly different): more escape jumps
Withdrawal symptoms in placebo-pelleted mice (morphine-pelleted mice; 50 mg/kg s.c., placebo-pelleted mice): did not induce any significant withdrawal symptoms

Cl.O=C(N[C@@H]1CC[C@@]2(O)[C@H]3Cc4ccc(O)c5c4[C@@]2(CCN3CC2CC2)[C@H]1O5)c1cc2ccccc2[nH]1 [Compound 10, 17-Cyclopropylmethyl-3,14β-dihydroxy-4,5α-epoxy-6β-(indole-2-carboxamido)morphinan]
Ki (KOR): 0.178 ± 0.002 nM
Antinociceptive effect (agonism) in warm-water immersion assay (Swiss Webster mice [4]): opioid agonist
Ki (DOR [3]): 1.54 ± 0.473 nM

Cl.O=C(N[C@@H]1CC[C@@]2(O)[C@H]3Cc4ccc(O)c5c4[C@@]2(CCN3CC2CC2)[C@H]1O5)c1cccc2cc[nH]c12 [Compound 15, 17-Cyclopropylmethyl-3,14β-dihydroxy-4,5α-epoxy-6β-(indole-7-carboxamido)morphinan]
Ki (KOR): 0.52 ± 0.094 nM
Blockage of morphine-mediated antinociception (Swiss Webster mice [1]): effectively blocked morphine-mediated antinociception
Emax(% DAMGO) ± SEM (MOR [2]): 32.0 ± 4.6 % DAMGO
Antinociceptive effect (agonism) in warm-water immersion assay (Swiss Webster mice [4]): partial opioid agonists
Ki (DOR [3]): 30.4 ± 9.49 nM

Cl.O=C(Cc1c[nH]c2ccccc12)N[C@@H]1CC[C@@]2(O)[C@H]3Cc4ccc(O)c5c4[C@@]2(CCN3CC2CC2)[C@H]1O5 [Compound 16, 17-Cyclopropylmethyl-3,14β-dihydroxy-4,5α-epoxy-6β-[2-(indol-3-yl)acetamido)morphinan]
Ki (KOR; [7]): 0.947 ± 0.114 nM
Emax(% DAMGO) ± SEM (MOR [2]): 50.17 ± 7.75 % DAMGO
Antinociceptive effect (agonism) in warm-water immersion assay (Swiss Webster mice [4]): partial opioid agonists
Ki (DOR [3]; [8]): 37 ± 1.21 nM

COc1cccc2c1[C@]13CCN(CC4CC4)[C@H](C2)[C@]1(OC)CCC(=O)C3 [Cyprodime]
Selectivity DOR/MOR (MOR over DOR) (MOR [5]): ≈ 39 fold
Selectivity KOR/MOR (MOR [5]): ≈ 10

Cl.O=C(N[C@H]1CC[C@@]2(O)[C@H]3Cc4ccc(O)c5c4[C@@]2(CCN3CC2CC2)[C@H]1O5)c1cc2ccccc2cn1 [NAQ, 17-Cyclopropylmethyl-3,14β-Dihydroxy-4,5α-Epoxy-6α-(Isoquinoline-3-Carboxamido)morphinan]
Ki (DOR [6]): 162 ± 15 nM
